Measured values reported in ChEMBL document CHEMBL1201862, “PubChem BioAssay data set” (2004).
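Exposure lasted 48 hours, with cells grown in 96-well plates and compounds tested at five concentrations. GI50 marks 50% less growth.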 The source made the active and inactive calls. Rule as the data show it: active = GI50 up to about 1.1 µM and inactive = higher.

How the values were obtained:
Assay in all cases: NCI-60 cell line screen, 48 h
[1] = test system: Malme-3M
[2] = test system: CCRF-CEM
[3] = test system: SK-MEL-28
[4] = test system: SF-539
[5] = test system: RPMI-8226
[6] = test system: LXFL 529
[7] = test system: HOP-92
[8] = test system: SK-MEL-2
[9] = test system: SK-MEL-5
[10] = test system: RXF 393
[11] = test system: NCI-H522
[12] = test system: OVCAR-8
[13] = test system: M14
[14] = test system: KM-20L2
[15] = test system: SNB-75
[16] = test system: SF-295
[17] = test system: SW-620
[18] = test system: SNB-19
[19] = test system: U-251
[20] = test system: COLO 205
[21] = test system: KM12
[22] = test system: OVCAR-3
[23] = test system: TK-10
[24] = test system: M19-MEL
[25] = test system: ACHN
[26] = test system: EKVX
[27] = test system: NCI-H226
[28] = test system: HT-29
[29] = test system: OVCAR-4
[30] = test system: DMS-273
[31] = test system: HL-60
[32] = test system: SK-OV-3
[33] = test system: NCI-H460
[34] = test system: HCT-116
[35] = test system: DLD-1
[36] = test system: A549
[37] = test system: SR
[38] = test system: HOP-18
[39] = test system: HOP-62
[40] = test system: NCI-H23
[41] = test system: HCT-15
[42] = test system: SN12C
[43] = test system: UO-31
[44] = test system: CAKI-1
[45] = test system: UACC-62
[46] = test system: 786-0
[47] = test system: IGROV-1
[48] = test system: SF-268
[49] = test system: MOLT-4
[50] = test system: UACC-257
[51] = test system: K562
[52] = test system: A498
[53] = test system: DMS-114
[54] = test system: SNB-78
[55] = test system: LOX IMVI
[56] = test system: OVCAR-5
[57] = test system: XF498

With `COC1=CC(=O)c2ccccc2C1(CCC=C(C)C)C1=NC(C)(C)CO1` (stereo not drawn) the GI50 [1] was 78.7 µM (inactive), the GI50 [2] was 28.6 µM (inactive) and the GI50 [3] was > 100 µM (inactive). For the same compound, the GI50 [4] was > 100 µM (inactive), the GI50 [5] was 32.2 µM (inactive) and the GI50 [6] was 50.7 µM (inactive). The GI50 [7] was 99.3 µM (inactive), the GI50 [8] was 83.6 µM (inactive) and the GI50 [9] was > 100 µM (inactive). For the same compound, the GI50 [10] was 56.4 µM (inactive), the GI50 [11] was 42.4 µM (inactive) and the GI50 [12] was 70.8 µM (inactive). The GI50 [13] was > 100 µM (inactive), the GI50 [14] was > 100 µM (inactive) and the GI50 [15] was > 100 µM (inactive). For the same compound, the GI50 [16] was 55.5 µM (inactive), the GI50 [17] was > 100 µM (inactive) and the GI50 [18] was 84.9 µM (inactive). The GI50 [19] was 80.4 µM (inactive), the GI50 [20] was > 100 µM (inactive) and the GI50 [21] was > 100 µM (inactive). The GI50 [22] was > 100 µM (inactive), the GI50 [23] was > 100 µM (inactive) and the GI50 [24] was 48.2 µM (inactive). The GI50 [25] was 6.62 µM (inactive), the GI50 [26] was 71.8 µM (inactive) and the GI50 [27] was > 100 µM (inactive). The GI50 [28] was 81.8 µM (inactive), the GI50 [29] was 71.9 µM (inactive) and the GI50 [30] was 72.4 µM (inactive). For the same compound, the GI50 [31] was 23.7 µM (inactive), the GI50 [32] was 86.5 µM (inactive) and the GI50 [33] was > 100 µM (inactive). The GI50 [34] was 48.4 µM (inactive), the GI50 [35] was > 100 µM (inactive) and the GI50 [36] was 51.6 µM (inactive). The GI50 [37] was 40.3 µM (inactive), the GI50 [38] was 43.6 µM (inactive) and the GI50 [39] was > 100 µM (inactive). For the same compound, the GI50 [40] was 91.2 µM (inactive), the GI50 [41] was 61.1 µM and the GI50 [42] was 94.6 µM (inactive). For the same compound, the GI50 [43] was 28.6 µM (inactive), the GI50 [44] was > 100 µM (inactive) and the GI50 [45] was > 100 µM (inactive). The GI50 [46] was > 100 µM (inactive), the GI50 [47] was 84.5 µM (inactive) and the GI50 [48] was > 100 µM (inactive). The GI50 [49] was 31.7 µM (inactive), the GI50 [50] was 54.6 µM (inactive) and the GI50 [51] was 28.4 µM (inactive).
`Cc1ccc(N2C(=O)/C(=C3\Sc4c(nc(C)[nH]c4=O)N3c3ccccc3)SC2=S)cc1` was tested, and the GI50 [1] was 46.8 µM (inactive), the GI50 [52] was 34.4 µM (inactive) and the GI50 [2] was 44.6 µM (inactive). For the same compound, the GI50 [3] was > 100 µM (inactive), the GI50 [53] was 72.6 µM (inactive) and the GI50 [54] was 39 µM (inactive). The GI50 [4] was 10 µM (inactive), the GI50 [5] was > 100 µM (inactive) and the GI50 [6] was 18.5 µM (inactive). For the same compound, the GI50 [7] was 41.5 µM (inactive), the GI50 [8] was 20.3 µM (inactive) and the GI50 [9] was > 100 µM (inactive). For the same compound, the GI50 [11] was 48.4 µM (inactive), the GI50 [12] was 34.6 µM (inactive) and the GI50 [13] was 19.7 µM (inactive). The GI50 [14] was > 100 µM (inactive), the GI50 [15] was 16.1 µM (inactive) and the GI50 [16] was 18 µM (inactive). For the same compound, the GI50 [17] was > 100 µM (inactive), the GI50 [18] was 37.3 µM (inactive) and the GI50 [19] was 17.3 µM (inactive). The GI50 [20] was > 100 µM (inactive), the GI50 [22] was 18.4 µM (inactive) and the GI50 [23] was 24 µM (inactive). For the same compound, the GI50 [24] was 63.5 µM (inactive), the GI50 [25] was 28.8 µM (inactive) and the GI50 [26] was 91.8 µM (inactive). For the same compound, the GI50 [27] was 30.5 µM (inactive), the GI50 [28] was 68.9 µM (inactive) and the GI50 [29] was 29.2 µM (inactive). For the same compound, the GI50 [30] was 34.6 µM (inactive), the GI50 [31] was > 100 µM (inactive) and the GI50 [32] was 15.8 µM (inactive). For the same compound, the GI50 [33] was 22.2 µM (inactive), the GI50 [34] was 60.3 µM (inactive) and the GI50 [55] was 15.5 µM (inactive). The GI50 [56] was > 100 µM (inactive), the GI50 [35] was 91.2 µM (inactive) and the GI50 [36] was 43 µM (inactive). The GI50 [39] was 10.4 µM (inactive), the GI50 [40] was 19.8 µM (inactive) and the GI50 [41] was 16.4 µM. The GI50 [42] was > 100 µM (inactive), the GI50 [43] was 29.2 µM (inactive) and the GI50 [44] was > 100 µM (inactive). For the same compound, the GI50 [45] was > 100 µM (inactive), the GI50 [46] was 10.4 µM (inactive) and the GI50 [47] was 60.3 µM (inactive). For the same compound, the GI50 [48] was 75.2 µM (inactive), the GI50 [57] was 20.9 µM (inactive) and the GI50 [50] was > 100 µM (inactive). The GI50 [51] was 32 µM (inactive).
